Measured values taken from ChEMBL document CHEMBL4049403, “Oligo-aspartic acid conjugates with benzo[c][2,6]naphthyridine-8-carboxylic acid scaffold as picomolar inhibitors of CK2” (Bioorg Med Chem, 2017).
Where a SMILES comes first, the peptide text is derived from it. The star is where a group is joined. X1 = O=C(O)c1ccc2c(c1)nc(OCCCCCCCCC(=O)*)c1ccncc12

Legend:
[1] = target: Aurora kinase B (Homo sapiens) (UniProt Q96GD4); assay: Inhibition of human Aurora B assessed as residual activity at 1 uM in presence of [33P]ATP by filter binding assay relative to control
[2] = target: Dual specificity tyrosine-phosphorylation-regulated kinase 3 (Homo sapiens) (UniProt O43781); assay: Inhibition of human DYRK3 assessed as residual activity at 1 uM in presence of 33P-ATP by filter-binding assay relative to control
Dual specificity tyrosine-phosphorylation-regulated kinase 3 (Homo sapiens), sequence (O43781 whole entry): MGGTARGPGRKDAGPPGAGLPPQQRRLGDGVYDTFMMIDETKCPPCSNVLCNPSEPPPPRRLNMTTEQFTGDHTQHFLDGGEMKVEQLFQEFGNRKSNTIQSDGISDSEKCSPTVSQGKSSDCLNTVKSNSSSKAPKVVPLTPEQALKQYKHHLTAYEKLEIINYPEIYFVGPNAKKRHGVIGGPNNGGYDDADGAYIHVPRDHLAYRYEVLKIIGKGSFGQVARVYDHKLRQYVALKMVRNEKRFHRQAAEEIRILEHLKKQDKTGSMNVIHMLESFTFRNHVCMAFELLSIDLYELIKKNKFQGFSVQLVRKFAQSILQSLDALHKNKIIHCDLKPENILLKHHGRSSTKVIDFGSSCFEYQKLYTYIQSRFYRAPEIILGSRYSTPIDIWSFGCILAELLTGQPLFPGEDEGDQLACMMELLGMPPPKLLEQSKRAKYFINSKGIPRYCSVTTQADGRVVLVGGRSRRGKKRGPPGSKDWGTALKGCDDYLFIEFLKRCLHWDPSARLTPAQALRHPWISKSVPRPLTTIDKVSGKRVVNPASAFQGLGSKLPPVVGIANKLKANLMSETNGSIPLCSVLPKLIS

[3] = target: Dual specificity tyrosine-phosphorylation-regulated kinase 1A (Homo sapiens) (UniProt Q13627); assay: Inhibition of human DYRK1A assessed as residual activity at 1 uM in presence of 33P-ATP by filter-binding assay relative to control
[4] = target: AMP-activated protein kinase, AMPK (Homo sapiens) (UniProt P54646+O43741+P54619+Q9UGJ0+Q9Y478+Q13131+Q9UGI9); assay: Inhibition of human AMPK assessed as residual activity at 1 uM in presence of 33P-ATP by filter-binding assay relative to control
[5] = target: Inhibitor of nuclear factor kappa-B kinase subunit epsilon (Homo sapiens) (UniProt Q14164); assay: Inhibition of human IKKe assessed as residual activity at 1 uM in presence of 33P-ATP by filter-binding assay relative to control
Inhibitor of nuclear factor kappa-B kinase subunit epsilon (Homo sapiens), sequence (Q14164 whole entry): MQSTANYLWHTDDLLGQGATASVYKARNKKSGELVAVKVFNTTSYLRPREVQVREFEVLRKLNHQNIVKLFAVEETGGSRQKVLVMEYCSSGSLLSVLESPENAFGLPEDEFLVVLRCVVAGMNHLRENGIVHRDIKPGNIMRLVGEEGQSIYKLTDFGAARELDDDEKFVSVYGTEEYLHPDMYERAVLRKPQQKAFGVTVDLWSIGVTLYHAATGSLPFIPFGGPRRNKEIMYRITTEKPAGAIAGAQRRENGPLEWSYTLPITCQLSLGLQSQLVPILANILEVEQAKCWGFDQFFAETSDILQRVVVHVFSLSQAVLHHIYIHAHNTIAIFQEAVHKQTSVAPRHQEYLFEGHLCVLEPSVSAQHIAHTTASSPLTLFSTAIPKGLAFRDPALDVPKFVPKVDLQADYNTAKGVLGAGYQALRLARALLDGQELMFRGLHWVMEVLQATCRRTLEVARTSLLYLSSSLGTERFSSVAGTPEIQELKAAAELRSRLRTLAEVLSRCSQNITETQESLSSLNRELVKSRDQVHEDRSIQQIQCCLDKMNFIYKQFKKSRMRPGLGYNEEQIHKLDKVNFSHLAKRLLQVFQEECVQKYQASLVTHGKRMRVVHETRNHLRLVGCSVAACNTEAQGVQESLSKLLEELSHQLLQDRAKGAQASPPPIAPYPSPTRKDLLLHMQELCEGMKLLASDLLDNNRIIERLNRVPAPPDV

[6] = target: Serine/threonine-protein kinase PLK1 (Homo sapiens) (UniProt P53350); assay: Inhibition of human PLK1 assessed as residual activity at 1 uM in presence of 33P-ATP by filter-binding assay relative to control
[7] = target: Eukaryotic translation initiation factor 2-alpha kinase 3 (Homo sapiens) (UniProt Q9NZJ5); assay: Inhibition of human EIF2AK3 assessed as residual activity at 1 uM in presence of 33P-ATP by filter-binding assay relative to control
[8] = target: Ribosomal protein S6 kinase alpha-1 (Homo sapiens) (UniProt Q15418); assay: Inhibition of human RSK1 assessed as residual activity at 1 uM in presence of 33P-ATP by filter-binding assay relative to control
[9] = target: Death-associated protein kinase 1 (Homo sapiens) (UniProt P53355); assay: Inhibition of human DAPK1 assessed as residual activity at 1 uM in presence of 33P-ATP by filter-binding assay relative to control
[10] = target: Protein-tyrosine kinase 6 (Homo sapiens) (UniProt Q13882); assay: Inhibition of human BRK assessed as residual activity at 1 uM in presence of 33P-ATP by filter-binding assay relative to control
[11] = target: Ribosomal protein S6 kinase alpha-5 (Homo sapiens) (UniProt O75582); assay: Inhibition of human MSK1 assessed as residual activity at 1 uM in presence of 33P-ATP by filter-binding assay relative to control
[12] = target: Tyrosine-protein kinase JAK2 (Homo sapiens) (UniProt O60674); assay: Inhibition of human JAK2 assessed as residual activity at 1 uM in presence of [33P]ATP by filter binding assay relative to control
[13] = target: Serine/threonine-protein kinase MARK2 (Homo sapiens) (UniProt Q7KZI7); assay: Inhibition of human MARK2 assessed as residual activity at 1 uM in presence of [33P]ATP by filter binding assay relative to control
Serine/threonine-protein kinase MARK2 (Homo sapiens), sequence (Q7KZI7 whole entry): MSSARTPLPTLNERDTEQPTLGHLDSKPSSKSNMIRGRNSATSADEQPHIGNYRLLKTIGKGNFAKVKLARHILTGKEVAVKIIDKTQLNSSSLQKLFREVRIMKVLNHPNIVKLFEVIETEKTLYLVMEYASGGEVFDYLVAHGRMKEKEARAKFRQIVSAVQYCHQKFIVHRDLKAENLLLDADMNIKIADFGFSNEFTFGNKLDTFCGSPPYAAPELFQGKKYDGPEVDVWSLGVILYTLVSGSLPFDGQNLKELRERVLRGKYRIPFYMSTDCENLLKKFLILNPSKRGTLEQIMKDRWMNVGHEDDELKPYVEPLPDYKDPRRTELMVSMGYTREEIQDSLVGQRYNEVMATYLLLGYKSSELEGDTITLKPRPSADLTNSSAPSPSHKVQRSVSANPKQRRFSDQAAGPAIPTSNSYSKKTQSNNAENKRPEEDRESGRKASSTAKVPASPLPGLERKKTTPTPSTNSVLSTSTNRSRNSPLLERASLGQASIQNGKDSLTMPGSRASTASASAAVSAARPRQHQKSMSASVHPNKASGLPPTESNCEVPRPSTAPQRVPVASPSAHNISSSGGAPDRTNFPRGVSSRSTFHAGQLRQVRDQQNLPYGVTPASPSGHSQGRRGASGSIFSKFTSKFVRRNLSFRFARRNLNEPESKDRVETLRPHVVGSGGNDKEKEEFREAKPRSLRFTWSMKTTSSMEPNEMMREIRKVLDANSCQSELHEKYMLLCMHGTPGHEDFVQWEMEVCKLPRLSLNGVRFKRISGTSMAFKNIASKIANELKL

[14] = target: Serine/threonine-protein kinase pim-2 (Homo sapiens) (UniProt Q9P1W9); assay: Inhibition of human PIM2 assessed as residual activity at 1 uM in presence of [33P]ATP by filter binding assay relative to control
Serine/threonine-protein kinase pim-2 (Homo sapiens), sequence (Q9P1W9 whole entry, looked up): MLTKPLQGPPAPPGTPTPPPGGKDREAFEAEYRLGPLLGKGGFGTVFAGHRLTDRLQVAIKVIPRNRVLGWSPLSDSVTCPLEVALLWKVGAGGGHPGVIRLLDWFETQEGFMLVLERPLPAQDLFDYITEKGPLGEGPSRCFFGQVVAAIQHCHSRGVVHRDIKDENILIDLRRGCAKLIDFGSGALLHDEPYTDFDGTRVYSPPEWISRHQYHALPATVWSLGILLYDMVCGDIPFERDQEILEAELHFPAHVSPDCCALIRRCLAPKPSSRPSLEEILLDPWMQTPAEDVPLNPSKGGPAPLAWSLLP

[15] = target: Inhibitor of nuclear factor kappa-B kinase subunit beta (Homo sapiens) (UniProt O14920); assay: Inhibition of human IKKb assessed as residual activity at 1 uM in presence of [33P]ATP by filter binding assay relative to control
[16] = target: MAP/microtubule affinity-regulating kinase 3 (Homo sapiens) (UniProt P27448); assay: Inhibition of human MARK3 assessed as residual activity at 1 uM in presence of [33P]ATP by filter binding assay relative to control
[17] = target: 3-phosphoinositide-dependent protein kinase 1 (Homo sapiens) (UniProt O15530); assay: Inhibition of human PDK1 assessed as residual activity at 1 uM in presence of [33P]ATP by filter binding assay relative to control
[18] = target: Ephrin type-B receptor 4 (Homo sapiens) (UniProt P54760); assay: Inhibition of human EPHB4 assessed as residual activity at 1 uM in presence of [33P]ATP by filter binding assay relative to control
[19] = target: Mitogen-activated protein kinase 14 (Homo sapiens) (UniProt Q16539); assay: Inhibition of human p38a MAPK assessed as residual activity at 1 uM in presence of [33P]ATP by filter binding assay relative to control
[20] = target: Serine/threonine-protein kinase BRSK2 (Homo sapiens) (UniProt Q8IWQ3); assay: Inhibition of human BRSK2 assessed as residual activity at 1 uM in presence of [33P]ATP by filter binding assay relative to control
[21] = target: Insulin receptor-related protein (Homo sapiens) (UniProt P14616); assay: Inhibition of human IRR assessed as residual activity at 1 uM in presence of [33P]ATP by filter binding assay relative to control
[22] = target: Serine/threonine-protein kinase ULK2 (Homo sapiens) (UniProt Q8IYT8); assay: Inhibition of human ULK2 assessed as residual activity at 1 uM in presence of [33P]ATP by filter binding assay relative to control
Serine/threonine-protein kinase ULK2 (Homo sapiens), sequence (Q8IYT8 whole entry): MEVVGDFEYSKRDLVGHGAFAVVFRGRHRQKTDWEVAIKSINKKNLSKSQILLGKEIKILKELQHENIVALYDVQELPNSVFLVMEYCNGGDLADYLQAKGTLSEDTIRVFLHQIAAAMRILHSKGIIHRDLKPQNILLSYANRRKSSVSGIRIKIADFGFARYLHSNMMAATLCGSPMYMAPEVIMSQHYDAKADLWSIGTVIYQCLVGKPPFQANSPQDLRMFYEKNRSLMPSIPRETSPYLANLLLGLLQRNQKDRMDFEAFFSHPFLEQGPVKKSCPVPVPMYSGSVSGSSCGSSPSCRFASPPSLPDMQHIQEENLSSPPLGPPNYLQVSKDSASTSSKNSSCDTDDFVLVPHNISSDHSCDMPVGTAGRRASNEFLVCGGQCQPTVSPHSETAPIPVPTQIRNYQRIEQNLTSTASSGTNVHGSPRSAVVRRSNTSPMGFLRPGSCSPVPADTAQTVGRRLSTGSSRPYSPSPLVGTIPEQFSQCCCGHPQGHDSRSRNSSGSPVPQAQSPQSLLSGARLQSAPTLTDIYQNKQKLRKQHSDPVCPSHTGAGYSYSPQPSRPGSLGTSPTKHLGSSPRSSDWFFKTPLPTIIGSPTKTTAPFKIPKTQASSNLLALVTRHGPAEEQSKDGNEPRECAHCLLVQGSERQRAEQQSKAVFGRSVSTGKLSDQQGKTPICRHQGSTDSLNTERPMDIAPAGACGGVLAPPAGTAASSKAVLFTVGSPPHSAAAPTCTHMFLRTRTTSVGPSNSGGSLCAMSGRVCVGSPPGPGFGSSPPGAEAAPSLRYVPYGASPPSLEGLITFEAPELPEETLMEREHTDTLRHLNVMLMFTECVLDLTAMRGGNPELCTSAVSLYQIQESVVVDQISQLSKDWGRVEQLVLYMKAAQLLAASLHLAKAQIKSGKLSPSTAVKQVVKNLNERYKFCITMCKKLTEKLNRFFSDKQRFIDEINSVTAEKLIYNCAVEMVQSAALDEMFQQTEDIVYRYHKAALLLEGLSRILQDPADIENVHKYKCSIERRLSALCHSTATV

[23] = target: Ephrin type-B receptor 2 (Homo sapiens) (UniProt P29323); assay: Inhibition of human EPH-B2 assessed as residual activity at 1 uM in presence of [33P]ATP by filter binding assay relative to control
Ephrin type-B receptor 2 (Homo sapiens), sequence (P29323 whole entry): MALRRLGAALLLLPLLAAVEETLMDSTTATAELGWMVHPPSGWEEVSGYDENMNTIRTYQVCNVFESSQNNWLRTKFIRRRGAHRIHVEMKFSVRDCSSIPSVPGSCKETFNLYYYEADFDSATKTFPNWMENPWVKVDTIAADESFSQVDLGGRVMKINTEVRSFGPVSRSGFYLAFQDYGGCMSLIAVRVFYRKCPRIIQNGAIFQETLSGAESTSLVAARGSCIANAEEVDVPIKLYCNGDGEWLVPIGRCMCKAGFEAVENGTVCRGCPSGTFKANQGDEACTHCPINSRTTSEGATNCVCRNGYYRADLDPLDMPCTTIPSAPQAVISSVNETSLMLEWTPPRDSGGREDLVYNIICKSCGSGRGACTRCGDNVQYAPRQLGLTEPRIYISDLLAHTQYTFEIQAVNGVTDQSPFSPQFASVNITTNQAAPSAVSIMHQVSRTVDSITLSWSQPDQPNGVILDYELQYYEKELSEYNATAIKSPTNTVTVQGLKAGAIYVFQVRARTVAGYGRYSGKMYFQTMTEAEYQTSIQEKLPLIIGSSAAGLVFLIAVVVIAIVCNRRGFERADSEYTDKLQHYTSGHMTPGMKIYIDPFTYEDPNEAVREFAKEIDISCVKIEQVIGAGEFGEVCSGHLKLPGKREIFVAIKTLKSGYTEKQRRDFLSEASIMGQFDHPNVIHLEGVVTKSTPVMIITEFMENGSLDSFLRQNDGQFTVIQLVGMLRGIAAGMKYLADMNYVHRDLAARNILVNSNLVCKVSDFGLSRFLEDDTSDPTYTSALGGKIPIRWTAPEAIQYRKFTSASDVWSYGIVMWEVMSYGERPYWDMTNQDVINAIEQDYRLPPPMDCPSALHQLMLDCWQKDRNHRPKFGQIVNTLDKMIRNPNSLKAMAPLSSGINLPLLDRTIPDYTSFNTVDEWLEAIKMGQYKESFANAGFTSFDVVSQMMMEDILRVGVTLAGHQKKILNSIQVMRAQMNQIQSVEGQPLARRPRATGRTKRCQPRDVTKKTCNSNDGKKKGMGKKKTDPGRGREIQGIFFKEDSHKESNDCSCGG

[24] = target: Interleukin-1 receptor-associated kinase 1 (Homo sapiens) (UniProt P51617); assay: Inhibition of human IRAK1 assessed as residual activity at 1 uM in presence of [33P]ATP by filter binding assay relative to control
[25] = target: Serine/threonine-protein kinase PAK 2 (Homo sapiens) (UniProt Q13177); assay: Inhibition of human PAK2 assessed as residual activity at 1 uM in presence of [33P]ATP by filter binding assay relative to control
Serine/threonine-protein kinase PAK 2 (Homo sapiens), sequence (Q13177 whole entry): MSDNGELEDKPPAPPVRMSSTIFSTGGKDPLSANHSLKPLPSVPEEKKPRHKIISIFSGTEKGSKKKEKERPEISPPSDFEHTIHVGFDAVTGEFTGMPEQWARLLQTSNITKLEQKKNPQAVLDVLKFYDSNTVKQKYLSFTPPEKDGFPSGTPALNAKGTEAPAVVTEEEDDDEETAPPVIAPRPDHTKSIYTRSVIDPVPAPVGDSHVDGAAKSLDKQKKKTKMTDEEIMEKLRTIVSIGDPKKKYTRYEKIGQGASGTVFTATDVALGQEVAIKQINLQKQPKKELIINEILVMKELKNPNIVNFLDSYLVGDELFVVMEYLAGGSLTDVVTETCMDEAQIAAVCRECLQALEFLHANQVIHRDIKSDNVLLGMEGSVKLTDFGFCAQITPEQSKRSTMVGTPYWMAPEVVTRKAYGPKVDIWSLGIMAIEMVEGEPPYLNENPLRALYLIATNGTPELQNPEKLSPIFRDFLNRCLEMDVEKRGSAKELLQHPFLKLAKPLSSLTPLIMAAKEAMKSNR

[26] = target: Aurora kinase A (Homo sapiens) (UniProt O14965); assay: Inhibition of human Aurora A assessed as residual activity at 1 uM in presence of [33P]ATP by filter binding assay relative to control
[27] = target: Ephrin type-A receptor 4 (Homo sapiens) (UniProt P54764); assay: Inhibition of human EPH-A4 assessed as residual activity at 1 uM in presence of [33P]ATP by filter binding assay relative to control
[28] = target: Serine/threonine-protein kinase OSR1 (Homo sapiens) (UniProt O95747); assay: Inhibition of human OSR1 assessed as residual activity at 1 uM in presence of [33P]ATP by filter binding assay relative to control
[29] = system: Serine/threonine-protein kinase MAP4K2 (Homo sapiens); assay: Inhibition of human GCK assessed as residual activity at 1 uM in presence of 33P-ATP by filter-binding assay relative to control

Activity [1]: 86% | Activity [2]: 4% | Activity [3]: 9% | Activity [4]: 11% | Activity [5]: 13% | Activity [6]: 23% | Activity [7]: 47% | Activity [8]: 50% | Activity [10]: 51% | Activity [11]: 58% | Activity [12]: 72% | Activity [13]: 75% | Activity [14]: 80% | Activity [15]: 81% | Activity [16]: 84% | Activity [17]: 84% | Activity [18]: 86% | Activity [19]: 89% | Activity [20]: 91% | Activity [21]: 92% | Activity [22]: 93% | Activity [23]: 96% | Activity [24]: 97% | Activity [25]: 97% | Activity [26]: 97% | Activity [27]: 104% | Activity [28]: 111% | Activity [29]: 15%
SMILES: NCCCC[C@H](NC(=O)[C@H](CC(=O)O)NC(=O)[C@H](CC(=O)O)NC(=O)[C@H](CC(=O)O)NC(=O)[C@H](CC(=O)O)NC(=O)[C@H](CC(=O)O)NC(=O)[C@H](CC(=O)O)NC(=O)CCCCCCCCOc1nc2cc(C(=O)O)ccc2c2cnccc12)C(=O)O (X1-DDDDDDK-OH)
Activity [9]: 50%
